Data reported in patent publication US20100298141A1, “SUBSTITUTED PYRIDINE N-OXIDE HERBICIDES” (E. I. DU PONT DE NEMOURS AND COMPANY, priority 2007, published 2010).

Legend:
corn = assay: Test A pre-/postemergence greenhouse test; type: in vivo, Zea mays; conditions: for Corn plant response rating: 0 to 100 scale
Summary of the method: (§1)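 Visual injury ratings, made relative to untreated controls roughly ten days after treatment, cover both preemergence and postemergence application. Compounds in a surfactant-containing non-phytotoxic solvent were sprayed onto the soil surface after sowing and, simultaneously, onto young plants at the one- to two-leaf stage.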

Italian ryegrass = assay: Test C pre-/postemergence test; type: in vivo, Lolium multiflorum
Summary of the method: (§2)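 Seeds were planted and treated preemergence with test chemical in a non-phytotoxic solvent mixture containing surfactant. Postemergence applications of the same formulation went onto plants 2 to 18 cm tall (1- to 4-leaf stage). A dash marks no test result.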

morningglory [1] = assay: Test C pre-/postemergence test; type: in vivo, Ipomoea coccinea
Summary of the method: as §2

bermudagrass = assay: Test C pre-/postemergence test; type: in vivo, Cynodon dactylon
Summary of the method: as §2

morningglory [2] = assay: Test A pre-/postemergence greenhouse test; type: in vivo, Ipomoea spp.; conditions: for Morningglory plant response rating: 0 to 100 scale
Summary of the method: as §1

pigweed = assay: Test C pre-/postemergence test; type: in vivo, Amaranthus retroflexus
Summary of the method: as §2

catchweed bedstraw = assay: Test C pre-/postemergence test; type: in vivo, Galium aparine
Summary of the method: as §2

Goosegrass = assay: Test C pre-/postemergence test; type: in vivo, Eleusin indica
Summary of the method: as §2

crabgrass = assay: Test A pre-/postemergence greenhouse test; type: in vivo, Digitaria sanguinalis; conditions: for Crabgrass, Large plant response rating: 0 to 100 scale
Summary of the method: as §1

wheat [3] = assay: Test A pre-/postemergence greenhouse test; type: in vivo, Triticum aestivum; conditions: for Wheat plant response rating: 0 to 100 scale
Summary of the method: as §1

giant foxtail = assay: Test A pre-/postemergence greenhouse test; type: in vivo, Setaria faberi; conditions: for Foxtail, Giant plant response rating: 0 to 100 scale
Summary of the method: as §1

barnyardgrass = assay: Test C flooded paddy test; type: in vivo, Echinochloa crus-galli; conditions: Flood
Summary of the method: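 Under a constant 3 cm flood, test compounds went directly into the paddy water. Following 13 to 15 days of greenhouse growth, treated species and controls were compared by eye.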

soybean = assay: Test C pre-/postemergence test; type: in vivo, Glycine max
Summary of the method: as §2

[4] = test system: common (oilseed) sunflower; assay: Test C pre-/postemergence test; type: in vivo, Helianthus annuus; conditions: for Sunflower plant response rating: preemergence, scale 0 (no effect) to 100 (complete control)
Summary of the method: as §2

wheat [5] = assay: Test C pre-/postemergence test; type: in vivo, Triticum aestivum; conditions: for Wheat plant response rating: preemergence, scale 0 (no effect) to 100 (complete control)
Summary of the method: as §2

yellow nutsedge = assay: Test C pre-/postemergence test; type: in vivo, Cyperus esculentus
Summary of the method: as §2

[6] = Postemergence, 125 g ai/ha, 0 is no effect, 100 is complete control
[7] = Postemergence, 500 g ai/ha, 0 is no effect, 100 is complete control
[8] = Preemergence, 125 g ai/ha, 0 no effect, 100 complete control
[9] = Preemergence, 500 g ai/ha, 0 to 100 scale where 0 is no effect and 100 is complete control
[10] = 31 g ai/ha, Preemergence, scale 0 to 100
[11] = 62 g ai/ha, preemergence, scale 0 (no effect) to 100 (complete control)
[12] = preemergence, 125 g ai/ha, scale 0 (no effect) to 100 (complete control)

Cn1nc(C(F)(F)F)c(CS(=O)(=O)c2cccc[n+]2[O-])c1OC(F)F [Compound 4]
Corn plant response rating (corn; [6]): 30
Corn plant response rating (corn; [7]): 60
Corn plant response rating (corn; [8]): 20
Plant response rating, Corn (corn; [9]): 80
Ryegrass, Italian plant response rating (Italian ryegrass; [10]): 0
Ryegrass, Italian plant response rating (Italian ryegrass; [11]): 60
Plant response rating (0 to 100), Ryegrass, Italian (Italian ryegrass; Preemergence, 250 g ai/ha): 100
Ryegrass, Italian plant response rating (Italian ryegrass; [12]): 100
Morningglory plant response rating (morningglory [1]; [10]): 0
Morningglory plant response rating (morningglory [1]; [11]): 0
Plant response rating (0 to 100), Morningglory (morningglory [1]; Preemergence, 250 g ai/ha): 100
Morningglory plant response rating (morningglory [1]; [12]): 85
Bermudagrass plant response rating (bermudagrass; [10]): 100
Bermudagrass plant response rating (bermudagrass; [11]): 100
Plant response rating (0 to 100), Bermudagrass (bermudagrass; Preemergence, 250 g ai/ha): 100
Bermudagrass plant response rating (bermudagrass; [12]): 100
Morningglory plant response rating (morningglory [2]; [6]): 60
Morningglory plant response rating (morningglory [2]; [7]): 70
Morningglory plant response rating (morningglory [2]; [8]): 80
Plant response rating, Morningglory (morningglory [2]; [9]): 90
Pigweed plant response rating (pigweed; [10]): 100
Pigweed plant response rating (pigweed; [11]): 100
Plant response rating (0 to 100), Pigweed (pigweed; Preemergence, 250 g ai/ha): 100
Pigweed plant response rating (pigweed; [12]): 100
Galium plant response rating (catchweed bedstraw; [10]): 70
Galium plant response rating (catchweed bedstraw; [11]): 90
Plant response rating (0 to 100), Galium (catchweed bedstraw; Preemergence, 250 g ai/ha): 100
Galium plant response rating (catchweed bedstraw; [12]): 100
Goosegrass plant response rating (Goosegrass; [10]): 100
Goosegrass plant response rating (Goosegrass; [11]): 100
Plant response rating (0 to 100), Goosegrass (Goosegrass; Preemergence, 250 g ai/ha): 100
Goosegrass plant response rating (Goosegrass; [12]): 100
Crabgrass, Large plant response rating (crabgrass; [6]): 80
Crabgrass, Large plant response rating (crabgrass; [7]): 80
Crabgrass, Large plant response rating (crabgrass; [8]): 100
Plant response rating, Crabgrass, Large (crabgrass; [9]): 100
Wheat plant response rating (wheat [3]; [6]): 60
Wheat plant response rating (wheat [3]; [7]): 60
Wheat plant response rating (wheat [3]; [8]): 50
Plant response rating, Wheat (wheat [3]; [9]): 80
Foxtail, Giant plant response rating (giant foxtail; [6]): 80
Foxtail, Giant plant response rating (giant foxtail; [7]): 90
Foxtail, Giant plant response rating (giant foxtail; [8]): 100
Plant response rating, Foxtail, Giant (giant foxtail; [9]): 100
Plant response rating, Barnyardgrass (barnyardgrass; 31 g ai/ha, scale 0 to 100 (0 no effect, 100 complete control)): 0
Plant response rating, Barnyardgrass (barnyardgrass; 62 g ai/ha, scale 0 to 100, 0 no effect, 100 complete control, 13 to 15 days): 35
Plant response rating, Barnyardgrass (barnyardgrass; 125 g ai/ha, scale 0 to 100, 0 no effect, 100 complete control, 13 to 15 days): 85
Plant response rating, Barnyardgrass (barnyardgrass; 250 g ai/ha, scale 0 to 100 (0 no effect, 100 complete control)): 90
Soybean plant response rating (soybean; [10]): 0
Soybean plant response rating (soybean; [12]): 0
Sunflower plant response rating ([4]; 62 g ai/ha): 10
Plant response rating (0 to 100), Sunflower ([4]; Preemergence, 250 g ai/ha): 80
Sunflower plant response rating ([4]; 125 g ai/ha): 15
Wheat plant response rating (wheat [5]; 62 g ai/ha): 20
Plant response rating (0 to 100), Wheat (wheat [5]; Preemergence, 250 g ai/ha): 50
Wheat plant response rating (wheat [5]; 125 g ai/ha): 20
Nutsedge, Yellow plant response rating (yellow nutsedge; [10]): 85
Nutsedge, Yellow plant response rating (yellow nutsedge; [11]): 100
Plant response rating (0 to 100), Nutsedge, Yellow (yellow nutsedge; Preemergence, 250 g ai/ha): 100
Nutsedge, Yellow plant response rating (yellow nutsedge; [12]): 100
